According to article PMC8305076, “Comprehensive Evaluation of Biological Effects of Pentathiepins on Various Human Cancer Cell Lines and Insights into Their Mode of Action” (International Journal of Molecular Sciences, 2021):
Where two headings read alike, the source gives them in different places.

Legend:
A-427 = assay: MTT cell viability assay; format: cell-based; conditions: Homo sapiens, 48 h
Method: (§1) Distinct MTT cell viability and crystal violet cell proliferation assays were performed to assess the cytotoxicity of the compounds 1–6 on 14 human cancer cell lines. In the viability assay, cells with intact mitochondria and thus active dehydrogenases are competent to convert MTT to the corresponding insoluble formazan. The formazan can be photometrically detected after solubilization and allows for indirect conclusions about the viability of the cells as an IC50 value. In the crystal violet assay, cells are stained by the binding of the dye to the chromatin, thus allowing for a quantification of biomass that remains adherent after a treatment in comparison with a control after a specific time. Potency is defined as the growth inhibitory concentration 50% (GI50).
(§2) In addition to performing the cell viability assay under normoxia (19% atmospheric oxygen), incubations were also conducted under hypoxic conditions, i.e., atmospheric oxygen levels of 1% during the treatment for 48 h. Hypoxia is a favorable condition of the tumor microenvironment that is connected with poor outcome. Therefore, the low oxygen condition mimics better the tumor environment. The biological effect of the pentathiepins under this condition provides insight into their dependency for oxygen, which has been postulated a key component in the proposed mechanism of action (Figure 3). Consistent with the proposed mechanism of action for five of the compounds, potency decreased under hypoxic conditions; in fact for 6, the half-maximal inhibitory concentration exceeded the highest tested concentration of 10 µM in four cell lines (Figure 6, Table S3). […] In contrast to the other compounds, in some cell lines, the cytotoxic effects of 1 were more pronounced under oxygen-reduced incubation conditions (Figure 6), indicating a tangential role of oxygen availability for this pentathiepin. Especially for the breast cancer cell line MCF-7, the cytotoxicity increased substantially, indicated by a decrease of the IC50 from >10.0 µM to about 1.0 µM.
(§3) The effect of the pentathiepins on the viability of the cell lines was assessed via an MTT assay, performed as previously described. Healthy and viable cells convert the yellow soluble 3-(4,5-dimethylthiazol-2-yl)-2,5-diphenyltetrazolium bromide to the insoluble purple corresponding formazan, which can be spectrophotometrically measured. For this assay, 5000 cells (1 250 for LCLC-103H) in 0.1 mL of medium were seeded per well of a 96-well plate and incubated at standard conditions for 24 h prior to treatment. A serial dilution of the test compounds was prepared in medium, covering final concentrations from 10.0 to 0.04 µM, and 0.1 mL of the working solution was added to each well in triplicate. After 48 h, 20 µL of a 2.5 mg/mL MTT in PBS solution was pipetted into each well and further incubated for 4 h at standard conditions. Thereafter, medium was replaced with 50 µL DMSO, and the plates were put on a shaker for 5 min and subsequently read at λ = 570 nm, with a SpectraMax 384plus (Molecular Devices, Sunnyvale, CA, USA). The cell viabilities of the treatment conditions were calculated in relation to a solvent control sample. The absolute IC50 was calculated via nonlinear regression followed by interpolation of the dose–response graphs in Prism 7 (GraphPad, San Diego, CA, USA). The IC90 was derived from the IC50 by using the slope factor of the dose–response graph with the tool QuickCalcs from GraphPad (GraphPad Software, San Diego, CA, USA).

A2780cis = assay: MTT cell viability assay; format: cell-based; conditions: Homo sapiens, 48 h
Method: as §1, §2, §3

A2780 = assay: MTT cell viability assay; format: cell-based; conditions: Homo sapiens; for IC50: 48 h; for IC90: calculated via GraphPad QuickCalcs from MTT IC50 and slope factor
Method: as §1, §2, §3

HAP-1.KO.GPx1 = assay: MTT cell viability assay; format: cell-based; conditions: Homo sapiens; for IC50: 48 h; for IC90: calculated via GraphPad QuickCalcs from MTT IC50 and slope factor
Method: as §1, §2, §3

Kyse-70 = assay: MTT cell viability assay; format: cell-based; conditions: Homo sapiens, 48 h
Method: as §1, §2, §3

LCLC-103H = assay: MTT cell viability assay; format: cell-based; conditions: Homo sapiens, 48 h
Method: as §1, §2, §3

PATU-8902 = assay: MTT cell viability assay; format: cell-based; conditions: Homo sapiens; for IC50: 48 h; for IC90: calculated via GraphPad QuickCalcs from MTT IC50 and slope factor
Method: as §1, §2, §3

RT-4 = assay: MTT cell viability assay; format: cell-based; conditions: Homo sapiens, 48 h
Method: as §1, §2, §3

Siso = assay: MTT cell viability assay; format: cell-based; conditions: Homo sapiens; for IC50: 48 h; for IC90: calculated via GraphPad QuickCalcs from MTT IC50 and slope factor
Method: as §1, §2, §3

YAPC = assay: MTT cell viability assay; format: cell-based; conditions: Homo sapiens; for IC50: 48 h; for IC90: calculated via GraphPad QuickCalcs from MTT IC50 and slope factor
Method: as §1, §2, §3

HAP-1 and HAP-1.KO.GPx1 = assay: DCFDA ROS assay with GSH added to the medium; format: cell-based, human; conditions: 25 µM pentathiepin plus 3 or 30 µM GSH in medium, 15 min
Method: As thiols are supposedly needed for the activation of the pentathiepins, the influence of additional glutathione added to the culture medium during treatment on the intracellular ROS levels was assessed. In these experiments, 3 or 30 µM of GSH were added to the medium containing 25 µM of pentathiepin or solvent, respectively (Figure 9).
In order to quantify intracellular ROS, we performed a flow cytometric assay based on the ROS-sensor 2′,7′-dichlorofluorescein diacetate (DCFDA). […] Per condition, 250,000 cells were seeded in 2 mL of medium per well of a 6-well plate and allowed to adhere overnight. For measurement of acute ROS, the cells were stained with 1 mL of a 20 µM DCFDA-PBS solution for 30 min under standard incubation conditions. […] After removing the solution and washing again with PBS, the cells were detached by using 0.5 mL of a diluted trypsin/EDTA-PBS solution (25%) and harvested with 1 mL of culture medium by carefully rinsing the wells. The cell suspension was transferred to 1.5 mL tubes, centrifuged for 5 min at 500× g, and washed with 1 mL of PBS. After removing the supernatant, each pellet was resuspended in 0.5 mL of PBS for measurement via the MACSquant Analyzer 10 at λEx/Em = 488/530 nm. Relative ROS levels resulting from treatment with pentathiepin were calculated by relating the fluorescence intensity of treated samples to the negative control. For the experiments covering periods of 24 and 48 h, the cells were incubated with the compounds first and stained with DCFDA afterwards. To assess the influence of additional GSH, we included 3 or 30 µM GSH to the medium containing 25 µM of pentathiepin, and the protocol was followed as described.

[1] = hypoxic (1% O2), read-out: IC50 MTT-H mean
[2] = normoxic (19% O2), read-out: IC50 MTT-N mean

Compound | IC50 (A2780cis; [1]) | IC50 (A2780cis; [2]) | IC50 (A2780; [1]) | IC50 (A2780; [2]) | IC90 (A2780) | IC50 (A-427; [1]) | IC50 (A-427; [2]) | IC50 (HAP-1.KO.GPx1; [1]) | IC50 (HAP-1.KO.GPx1; [2]) | IC90 (HAP-1.KO.GPx1) | IC50 (Kyse-70; [1]) | IC50 (Kyse-70; [2]) | IC50 (LCLC-103H; [1]) | IC50 (LCLC-103H; [2]) | IC50 (PATU-8902; [1]) | IC50 (PATU-8902; [2]) | IC90 (PATU-8902) | IC50 (RT-4; [1]) | IC50 (RT-4; [2]) | IC50 (Siso; [1]) | other results
CCOc1c2c(c3ccc(C(=O)N4CCCCC4)cn13)SSSSS2 [Compound 2, (6-Ethoxy-[1,2,3,4,5]pentathiepino[6,7-a]indolizin-9-yl)(piperidinyl)methanone] | 637 nM | 652 nM | 804 nM | 430 nM | 1000 nM | 1080 nM | 1460 nM | 1190 nM | 644 nM | 1200 nM | 2100 nM | 1580 nM | 1540 nM | 1360 nM | 3150 nM | 1720 nM | 6520 nM | 5900 nM | 1600 nM | 2960 nM | IC50 (Siso; [2]): 1380 nM; IC90 (Siso): 2700 nM; IC50 (YAPC; [1]): 2230 nM; IC50 (YAPC; [2]): 1550 nM; IC90 (YAPC): 4260 nM; effect of added GSH on intracellular ROS (HAP-1 and HAP-1.KO.GPx1): roughly doubling the effect of the compound alone
CCOc1c2c(c3ccc(C(=O)N4CCOCC4)cn13)SSSSS2 [Compound 3, (6-Ethoxy-[1,2,3,4,5]pentathiepino[6,7-a]indolizin-9-yl)(morpholino)methanone] | 316 nM | 206 nM | 616 nM | 135 nM | 360 nM | 959 nM | 785 nM | 911 nM | 368 nM | 800 nM | 2290 nM | 824 nM | 820 nM | 571 nM | 2340 nM | 1050 nM | 2480 nM | 2310 nM | 878 nM | 2730 nM | IC50 (Siso; [2]): 573 nM; IC90 (Siso): 1230 nM; IC50 (YAPC; [1]): 2370 nM; IC50 (YAPC; [2]): 1220 nM; IC90 (YAPC): 2240 nM; effect of added GSH on intracellular ROS (HAP-1 and HAP-1.KO.GPx1): tendency toward decreased oxidative stress
CCOc1c2c(c3ccc(C(=O)N4CCN(C(=O)c5ccc(F)cc5)CC4)cn13)SSSSS2 [Compound 5, (6-Ethoxy-[1,2,3,4,5]pentathiepino[6,7-a]indolizin-9-yl)(4-(4-fluorobenzoyl)piperazinyl)methanone] | 449 nM | 308 nM | 588 nM | 259 nM | 510 nM | 834 nM | 906 nM | 912 nM | 413 nM | 720 nM | 1520 nM | 826 nM | 677 nM | 800 nM | 1560 nM | 1200 nM | 2570 nM | 1740 nM | 716 nM | 1850 nM | IC50 (Siso; [2]): 794 nM; IC90 (Siso): 1470 nM; IC50 (YAPC; [1]): 1520 nM; IC50 (YAPC; [2]): 1360 nM; IC90 (YAPC): 2200 nM; effect of added GSH on intracellular ROS (HAP-1 and HAP-1.KO.GPx1): roughly doubling the effect of the compound alone

Continued by falling IC50 (A2780cis; [1]), values first:

IC50 (A2780cis; [1]) | IC50 (A2780cis; [2]) | IC50 (A2780; [1]) | IC50 (A2780; [2]) | IC90 (A2780) | Compound | IC50 (A-427; [1]) | IC50 (A-427; [2]) | IC50 (HAP-1.KO.GPx1; [1]) | IC50 (HAP-1.KO.GPx1; [2]) | IC90 (HAP-1.KO.GPx1) | IC50 (Kyse-70; [1]) | IC50 (Kyse-70; [2]) | IC50 (LCLC-103H; [1]) | IC50 (LCLC-103H; [2]) | IC50 (PATU-8902; [1]) | IC50 (PATU-8902; [2]) | IC90 (PATU-8902) | IC50 (RT-4; [1]) | IC50 (RT-4; [2]) | IC50 (Siso; [1]) | other results
544 nM | 399 nM | 799 nM | 213 nM | 610 nM | CCOc1c2c(c3ccc(C(=O)N(CC)CC)cn13)SSSSS2 [Compound 4, 6-Ethoxy-N,N’-diethyl-[1,2,3,4,5]pentathiepino[6,7-a]indolizine-9-carboxamide] | 1190 nM | 1090 nM | 1180 nM | 322 nM | 640 nM | 3600 nM | 976 nM | 827 nM | 674 nM | 1270 nM | 823 nM | 6000 nM | 2220 nM | 1310 nM | 4240 nM | IC50 (Siso; [2]): 934 nM; IC90 (Siso): 1930 nM; IC50 (YAPC; [1]): 2210 nM; IC50 (YAPC; [2]): 1150 nM; IC90 (YAPC): 3700 nM; effect of added GSH on intracellular ROS (HAP-1 and HAP-1.KO.GPx1): an ascending trend was observed but not determined as statistically significant
411 nM | 410 nM | 443 nM | 692 nM | 1870 nM | CCOc1c2c(c3cnc4[nH]c(-c5ccc(OC)cc5)cc4n13)SSSSS2 [Compound 1, 11-Ethoxy-2-(4-methoxyphenyl)-3H-[1,2,3,4,5]pentathiepino[6′,7′:3,4]pyrrolo[1,2-a]pyrrolo[2,3-e]pyrazine] | 285 nM | 349 nM | 428 nM | 358 nM | 550 nM | 532 nM | 477 nM | 552 nM | 1420 nM | 543 nM | 579 nM | 1220 nM | 522 nM | 1930 nM | 602 nM | IC50 (Siso; [2]): 414 nM; IC90 (Siso): 770 nM; IC50 (YAPC; [1]): 360 nM; IC50 (YAPC; [2]): 780 nM; IC90 (YAPC): 2470 nM; effect of added GSH on intracellular ROS (HAP-1 and HAP-1.KO.GPx1): No change was observed
